Results as given in the supplement of paper PMC10307832.

Legend:
Test in all cases: relative viability (nuclei count vs DMSO), 5 days (fraction); higher = more cells survive
[1] = compound: C1=CC=C(C(=C1)C2=CC=C(C=C2)C3=CSC4=C3C(=C(C(=O)N4)C#N)O)O + CC(=O)Nc1cccc(-n2c(=O)n(C3CC3)c(=O)c3c(Nc4ccc(I)cc4F)n(C)c(=O)c(C)c32)c1 [Trametinib] (partner 0.02 µM)
Procedure, shortened: (§1)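 For relative viability, nuclei counts in treated wells were divided by those in vehicle wells. Lung cancer cell lines had been pin-tool dosed in 1536-well plates the day after seeding and cultured for 5 days, then fixed and stained in one step (final 0.05% Triton X-100, 1% formaldehyde, 1 ug/ml Hoechst) and imaged at 4×. Doses were one drug alone or a fixed anchor-drug dose plus five library-drug doses (not always all listed) in √10 steps, and values are duplicate-plate medians.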

TGX 221 + Phenformin = compound: CC1=CN2C(=O)C=C(N=C2C(=C1)C(C)NC3=CC=CC=C3)N4CCOCC4 [TGX 221] + N=C(N)NC(=N)NCCc1ccccc1 [Phenformin] (partner 250 µM)
Procedure, shortened: as §1

[2] = compound: C1=CC=C(C(=C1)C2=CC=C(C=C2)C3=CSC4=C3C(=C(C(=O)N4)C#N)O)O + CS(=O)(=O)CCNCc1ccc(-c2ccc3ncnc(Nc4ccc(OCc5cccc(F)c5)c(Cl)c4)c3c2)o1 [Lapatinib] (partner 2 µM)
Procedure, shortened: as §1

TGX 221 + Pemetrexed = compound: CC1=CN2C(=O)C=C(N=C2C(=C1)C(C)NC3=CC=CC=C3)N4CCOCC4 [TGX 221] + Nc1nc2[nH]cc(CCc3ccc(C(=O)N[C@@H](CCC(=O)O)C(=O)O)cc3)c2c(=O)[nH]1 [Pemetrexed] (partner 0.2 µM)
Procedure, shortened: as §1

[3] = compound: C1=CC=C(C(=C1)C2=CC=C(C=C2)C3=CSC4=C3C(=C(C(=O)N4)C#N)O)O + NC(=O)Nc1cc(-c2cccc(F)c2)sc1C(=O)N[C@H]1CCCNC1 [AZD7762] (partner 0.2 µM)
Procedure, shortened: as §1

NCI-H1792
relative viability ([1]; first compound 0.253 µM): 0.536
relative viability ([1]; first compound 0.8 µM): 0.424
relative viability ([1]; first compound 2.53 µM): 0.364
relative viability ([1]; first compound 8 µM): 0.165
relative viability (TGX 221 + Phenformin; first compound 0.8 µM): 0.249
relative viability (TGX 221 + Phenformin; first compound 2.53 µM): 0.319
relative viability (TGX 221 + Phenformin; first compound 8 µM): 0.283
relative viability ([2]; first compound 0.253 µM): 0.543
relative viability ([2]; first compound 0.8 µM): 0.854
relative viability ([2]; first compound 2.53 µM): 0.92
relative viability ([2]; first compound 8 µM): 0.658
relative viability (TGX 221 + Pemetrexed; first compound 0.08 µM): 0.795
relative viability (TGX 221 + Pemetrexed; first compound 0.253 µM): 0.695
relative viability (TGX 221 + Pemetrexed; first compound 0.8 µM): 0.557
relative viability (TGX 221 + Pemetrexed; first compound 2.53 µM): 0.549
relative viability (TGX 221 + Pemetrexed; first compound 8 µM): 0.802
relative viability ([3]; first compound 0.253 µM): 0.953
relative viability ([3]; first compound 0.8 µM): 0.329
relative viability ([3]; first compound 2.53 µM): 0.551
relative viability ([3]; first compound 8 µM): 0.532
